The test system of one test is Staphylococcus aureus. Kind of test: Bactericidal activity towards Staphylococcus aureus, percent survival. In kind it is cell-based. Particulars: S. aureus. The method, then: (§1) All tests in the following examples were performed at 37° C. The efficacy of the enhanced broad range bactericides was determined by assaying bactericidal activity as measured by the percent bacterial survival after treatment with the bactericide. Generally, after incubation of a 10^7 cell per ml suspension of target species with the novel bactericide for specified lengths of time, bacteria were collected by centrifugation for 2 minutes. […] Surviving bacteria were determined by scoring colony forming units (CFU) after incubation for 24-48 hours at 37° C. An effective bactericide according to this invention is one which allows less than 0.1% of the initial viable count of the bacteria to survive.
Incubations were performed in 50 mM sodium acetate buffer, pH 5.0 or 20 m
TrisHCl buffer, pH 8.0 at 37° C.

In test [1] the test system is Listeria monocytogenes. Kind of test: Bactericidal activity towards Listeria monocytogenes in Tris buffer. The note with it: L. monocytogenes; pH 8.0, Nisin 0, EDTA 1.0 mM. It counts as cell-based. The method, then:
as §1
(§2) Incubations were performed in 20 mM TrisHCl, pH 8.0 at 37° C.

For another test, the system named is S. typhimurium. Kind of test: Bactericidal activity, percent bacterial survival of S. typhimurium suspension. It counts as cell-based, Salmonella typhimurium. The note with it: for % Survival at 2 hours: S. typhimurium. The method, then:
(§3) All tests in the following examples were performed at 37° C. The efficacy of the enhanced broad range bactericides was determined by assaying bactericidal activity as measured by the percent bacterial survival after treatment with the bactericide. Generally, after incubation of a 10^7 cell per ml suspension of target species with the novel bactericide for specified lengths of time, bacteria were collected by centrifugation for 2 minutes. […] Surviving bacteria were determined by scoring colony forming units (CFU) after incubation for 24-48 hours at 37° C.
The control (Test #1) is identical to the control of Example 1 (Table 1).

The test system of the next test is K. pneumoniae. Briefly: Bactericidal activity, percent bacterial survival of K. pneumoniae suspension. In kind it is cell-based, Klebsiella pneumoniae. The note with it: Nisin 0, EDTA 20 mM, 20 mM Tris pH 8.0. The method, then: as §3
The effect was measured as a function of percentage bacterial survival after 2 hours.

Test [2] has as its system S. typhimurium on chicken muscle. Kind of test: Bactericidal activity towards S. typhimurium on chicken muscle (unadhered cells). In kind it is cell-based, Salmonella typhimurium. The method, then:
Incubations were performed in either 50 mM sodium acetate, pH 5.0, or 20 mM Tris, pH 8.0 at 37° C.
Cubes of chicken muscle were cleansed with sodium hypochlorite and povidone iodine prior to use. To inoculate the tissue, the cubes of chicken muscle were dipped into a 10^8 cells/ml suspension of S. typhimurium in 20 mM Tris HCl, pH 8.0. Excess moisture was removed from dipped cubes by tapping. The chicken samples were placed into sufficient buffer containing the nisin composition to cover the tissue and incubated for 2 hours at 37° C. after which the tissue was removed to sufficient Phage buffer to cover the tissue. The bacteria remaining in the test solution were collected by centrifugation, washed with Phage buffer, and combined with bacteria washed from the tissue by Phage buffer. The combined samples (termed "unadhered" cells) were serially diluted and 100 μl aliquots were plated for determination of surviving bacteria.
(§4) Cubes of chicken muscle were cleansed with sodium hypochlorite and povidone iodine prior to use. To inoculate the tissue, the cubes of chicken muscle were dipped into a 10^8 cells/ml suspension of S. typhimurium in 20 mM Tris HCl, pH 8.0. Excess moisture was removed from dipped cubes by tapping. The tissue was placed into sufficient buffer containing the nisin compositions to cover the tissue, and incubated for 2 hours at 37° C. after which the tissue was removed to sufficient Phage buffer to cover the tissue. The bacteria remaining in the test solution were collected by centrifugation, washed with Phage buffer, and combined with bacteria washed from the tissue by Phage buffer. The combined samples (termed "unadhered" cells) were serially diluted and 100 μl aliquots were plated for determination of surviving bacteria.
as §4, with “cleaned” for “cleansed”, “50” for “20”, “sodium acetate buffer,” for “Tris HCl,”, “5.0.” for “8.0.”, “containing” for “containing the”

Another test deals with Coryneform bacteria. Briefly: Bactericidal activity towards Coryneform bacteria. In kind it is cell-based. How it is done: as §1, §2
In the next test the test system is E. coli. Kind of test: Bactericidal activity, percent bacterial survival of E. coli suspension. In kind it is cell-based, Escherichia coli. Particulars: for Percentage E. coli Survival at 2 hours: 20 mM Tris pH 8.0. How it is done:
as §3
The effects of the bactericide were measured as a function of percentage bacteria survival after 2 hours.
Incubations were performed in 20 mM Tris, […] at 37° C.

The test system of a further test is Streptococcus mutans. Kind of test: Bactericidal activity and kinetics towards Streptococcus mutans in Tris buffer. It counts as cell-based. The note with it: S. mutans, Nisin 0 with 1.0 mM EDTA, pH 7.3.
In the next test the test system is Streptococcus agalactiae. Kind of test: Bactericidal activity towards Streptococcus agalactiae in milk. In kind it is cell-based. Particulars: for % survival at 2h: S. agalactiae in milk at 37° C. The method, then:
as §1
However, the combination of the two agents, 0.1% monolaurin and nisin 0.2 μg/ml, is extremely potent towards S. agalactiae. […] Thus, when the application of nisin is limited by its available activity, a bactericide comprising nisin with a surfactant can be expected to be more useful.
(§5) Incubations were in milk at 37° C.

Test [3] deals with Listeria monocytogenes. Kind of test: Bactericidal activity towards Listeria monocytogenes in milk. The note with it: for % Survival 2 hr: L. monocytogenes in milk at 37° C. In kind it is cell-based. How it is done:
as §1
An example of where the application of nisin is limited by its available activity is illustrated by the data in Table 15B.
as §5

Method for Streptococcus mutans: All tests in the following examples were performed at 37° C. The efficacy of the enhanced broad range bactericides was determined by assaying bactericidal activity as measured by the percent bacterial survival after treatment with the bactericide. Generally, after incubation of a 10^7 cell per ml suspension of target species with the novel bactericide for specified lengths of time, bacteria were collected by centrifugation for 2 minutes. The bacterial pellet was washed free of the bactericide with a rescue buffer, termed herein Phage buffer (50mM Tris-HCl buffer pH 7.8, 1 mM MgSO4, 4 mM CaCl2, 0.1 M Nacl, and 0.1% gelatin), resuspended and serially diluted into Phage buffer, and 100 μl of the suspended bacteria were spread on nutrient agar plates. Surviving bacteria were determined by scoring colony forming units (CFU) after incubation for 24-48 hours at 37° C.
The suspensions were incubated for various times ranging from 0.5 to 60 minutes with the bactericides.
Incubations were performed in 20 mM TrisHCl, pH 7.3 at 37° C.

Turning to `O=C(O)CN(CCN(CC(=O)O)CC(=O)O)CC(=O)O` [EDTA], the “% Survival 2 hr” value in the test on Staphylococcus aureus (pH 5.0, Nisin 0, EDTA 3.0 mM) amounted to 100%; in the test with Staphylococcus aureus (pH 8.0, Nisin 0, EDTA 0.3 mM), 100%; with Staphylococcus aureus (pH 8.0, Nisin 0, EDTA 1.0 mM), 81%; in the test on Staphylococcus aureus (pH 8.0, Nisin 0, EDTA 3.0 mM), 100%; in the test with Staphylococcus aureus (pH 8.0, Nisin 0, EDTA 10 mM), 100%; with Staphylococcus aureus (pH 8.0, Nisin 0, EDTA 30 mM), 100%. Moreover, the “% Survival 2 hr” value came out at 4.6% with Coryneform bacteria (pH 8.0, Nisin 0, EDTA 0.3 mM); 3.6% with Coryneform bacteria (pH 8.0, Nisin 0, EDTA 1.0 mM); 8% with Coryneform bacteria (pH 8.0, Nisin 0, EDTA 3.0 mM); 36% with Coryneform bacteria (pH 8.0, Nisin 0, EDTA 10 mM). In addition, the “% Survival after 2 hr” value in the test on Listeria monocytogenes [1] is reported as 84%. The “Percentage S. typhimurium Survival at 3 hours” value in the test on S. typhimurium (Nisin 0, EDTA 20 mM, 20 mM Tris pH 8.0, 37° C) is reported as 2.5%; in the test on S. typhimurium (Table 3: Nisin 0, EDTA 20 mM, Tween20 0%, 20 mM Tris pH 8.0), 2.5%. In addition, the “% Survival at 2 hours” value in the test on S. typhimurium (Nisin 0, EDTA 1.0 mM, BSA 1.0%, 20 mM Tris pH 8.0) was determined as 63%; in the test on S. typhimurium (pH 5.0 (50 mM sodium acetate), Nisin 0, EDTA 2.0 mM) it was 38.7%; with S. typhimurium (pH 5.0, Nisin 0, EDTA 10 mM), 15.2%; in the test on S. typhimurium (pH 5.0, Nisin 0, EDTA 50 mM), 3.5%; in the test with S. typhimurium (pH 8.0 (20 mM Tris), Nisin 0, EDTA 2.0 mM), 8.7%; in the test with S. typhimurium (pH 8.0, Nisin 0, EDTA 10 mM), 14%. The “% Survival at 2 hours” value is listed as 11.4% in the test on S. typhimurium (pH 8.0, Nisin 0, EDTA 50 mM); 45% in the test on S. typhimurium (pH 8.0, Nisin 0, EDTA 100 mM); 22% with K. pneumoniae; 27% in test [2] (Table 9, chicken muscle, pH 8.0, Nisin 0, EDTA 1.0 mM, BSA 1.0%). The “% Survival at 2 hours (Unadhered cells)” value in test [2] (Table 10, chicken muscle, Nisin 0, EDTA 10 mM, Methyl Paraben 0%, 50 mM Na acetate buffer, pH 5.0) is reported as 11.8%; in test [2] (chicken muscle, pH 5.0, Nisin 0, EDTA 10 mM), 6.4%; in test [2] (chicken muscle, pH 8.0, Nisin 0, EDTA 10 mM), 5.2%. In addition, in the test with E. coli (E. coli, Nisin 0, 1.0 mM EDTA, 20 mM Tris pH 7.0), the “% survival at 1 min.” value is 100%. The “Percentage E. coli Survival at 2 hours” value in the test on E. coli (Nisin 0, EDTA 20 mM, Triton X-100 0%) worked out at 14.5%. Besides, the “% Survival” value in the test on Streptococcus mutans (incubation 3 min) and in the test with Streptococcus mutans (incubation 60 min) was 100% in each case.
On to `CCCCCCCCCCCC(=O)OCC(O)CO` (centres unmarked) [Monolaurin, monolaurin], for which the “% survival at 2h” value with Streptococcus agalactiae (Nisin 0, Monolaurin 0.01%) amounted to 100%; in the test with Streptococcus agalactiae (Nisin 0, Monolaurin 0.1%), 4.5%. The “bactericidal activity towards Streptococcus agalactiae” value in the test on Streptococcus agalactiae (monolaurin at concentrations up to 0.1%, in milk) is on record as “little significant bactericidal activity”.
For the compound Triton X-100, in the test with E. coli (Nisin 0, EDTA 0 mM, Triton X-100 1.0%), the “Percentage E. coli Survival at 2 hours” value came out at 100%. Also, the “bactericidal activity towards E. coli” value in the test on E. coli (Triton X-100 alone, tests #3 and #4 of Table 4) is listed as “no significant bactericidal activity”.
For the compound monooleate, the “% Survival 2 hr” value is reported as 67% with Listeria monocytogenes [3] (Nisin 0, Monooleate 0.1%) and 63% in the test with Listeria monocytogenes [3] (Nisin 0, Monooleate 1.0%). Besides, the “bactericidal activity towards L. monocytogenes” value in the test on Listeria monocytogenes [3] (monooleate by itself, in milk) was “no bactericidal activity”.

The record behind these values is patent US5260271A, “Nisin compositions for use as enhanced broad range bactericides” (Applied Microbiology, Inc., priority 1992, dated 1993).
